Data as given in paper PMC9274004, “Deciphering the Molecular Interaction Between the Adhesion G Protein-Coupled Receptor ADGRV1 and its PDZ-Containing Regulator PDZD7” (Frontiers in Molecular Biosciences, 2022).
Where no end group is shown, it is not given here.

Target: T1, PDZD7 PDZ1ext (81-192) (Mus musculus, UniProt E9Q9W7)
T1 construct: PDZ1 (81-167), PDZ1ext (81-192); GST (followed by TEV site) (N, cleaved yes); made in house; host or cells: E. coli BL21 DE3
T1 sequence (E9Q9W7 81-192): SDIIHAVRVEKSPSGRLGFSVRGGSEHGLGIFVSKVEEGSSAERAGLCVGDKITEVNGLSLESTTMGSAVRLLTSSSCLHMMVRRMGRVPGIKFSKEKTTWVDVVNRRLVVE
Assay: NMR titration of PDZ1ext with ADGRV1 ligands
Assay type: binding, murine
Conditions: NMR titration (1H-15N HSQC CSP), Tris HCl pH 7.5 (50 mM), 25°C; SD of Kd over at least ten shifting peaks; read-out: Kd
Method: All experiments were recorded at 25°C on a Bruker 800 MHz spectrometer equipped with a triple resonance ^1H{^13C/^15N} cryoprobe. The ^1H, ^15 N and ^13C backbone resonances assignment of PDZ1ext was carried out using 3D HNCA, HNCACB, HNCO, HNCOCA experiments (Tris HCl buffer adjusted to pH 6). The 2D ^1H-^15N HSQC spectra used to compare PDZ1, PDZ1ext, PDZ2 and PDZ2ext were recorded in Tris HCl pH 7.5 (50 mM). The 2D ^1H-^15N HSQC spectra used to compare PDZ1ext, PDZ2ext and P1P2 were recorded in Phosphate Buffer pH 6.5 (50 mM). Titration experiments of PDZ1 (WT), PDZ1ext (WT) and PDZ1ext (G103R) against ADGRV1pbm peptide were performed in Tris HCl pH 7.5 (50 mM). Averaged Chemical Shifts Perturbations (CSP) were calculated as: Δδavg = ((Δδ(^1H))^2+(Δδ(^15N)*0.159)^2)^½. […]
We monitored the interaction between PDZD7 constructs and a peptide (ADGRV1pbm) corresponding to the last 13 residues of ADGRV1, encompassing its PBM (sequence VELRRIPIADTHL-COOH; PBM underlined). We measured apparent Kd values of our constructs towards ADGRV1pbm using several biophysical methods (NMR, fluorescence, MicroScale Thermophoresis (MST)) (Table 1; Supplementary Figure S3–S5). […]

Sequence: VELRRIPIADTHL [ADGRV1pbm]
- Kd: 47 ± 6 µM
